Test results as given in PMC9447987, “Long-term memory CD8^+ T cells specific for SARS-CoV-2 in individuals who received the BNT162b2 mRNA vaccine” (Nature Communications, 2022).

Tests used:
[1] = test system: HLA-A*24:02-restricted CD8+ T cells; format: cell-based, human; details: for number of S-QI9-specific T cell populations that effectively recognized the peptide / number of individuals whose S-QI9-specific T cells moderately recognized the peptide / number of individuals whose S-QI9-specific T cells uniformly recognized variant peptide and S-QI9 / number of individuals whose S-QI9-specific bulk T cells exhibited no or very weak recognition: 13 HLA-A*24:02+ individuals, C1R-A2402 pre-pulsed with 1 nM peptide
[2] = target: HLA-A*24:02 (Homo sapiens, UniProt P04439, D101N/D140Y/D185E/E176V/E190D/F33S/G103R/G107R/I119L/I121M/I306V/K335N/L105A/L180Q/L300P/N151K/N90K/Q86E/Q94H/R106L/R138H/R89G/T104I/T345S/V100E/W191G/Y123F); assay: HLA stabilization assay using RMA-S-A2402 cells; format: binding; details: for MFI, HLA-A2402 (APC), representative staining: RMA-S-A2402 cells, Suppl. Fig. 3d (for Fig. 7c), peptide(-) 11.3, 26 °C (Maximum) 24.0; for affinity for HLA-A*24:02, times weaker than that of S-QI9: approximately, peptide 0.03 to 10 μM
[3] = test system: HLA-A*24:02-peptide complexes; assay: Peptide–MHC Complex Dissociation Assay using RMA-S-A2402 cells; format: binding, human; details: for % Mean Fluoresence: Fig.7d; for stability of the HLA-A*24:02-peptide complex (in words): RMA-S-A2402 cells, 10 μM peptide, 0, 1, 2 and 4 h
[4] = post-incubation 0 hour, replicate 1
[5] = post-incubation 0 hour, replicate 2
[6] = post-incubation 0 hour, replicate 3
[7] = post-incubation 1 hour, replicate 1
[8] = post-incubation 1 hour, replicate 2
[9] = post-incubation 1 hour, replicate 3
[10] = post-incubation 2 hour, replicate 1
[11] = post-incubation 2 hour, replicate 2
[12] = post-incubation 2 hour, replicate 3
[13] = post-incubation 4 hour, replicate 1
[14] = post-incubation 4 hour, replicate 2
[15] = post-incubation 4 hour, replicate 3

Sequence	sensitivity of S-QI9-specific T cells for the peptide compared with the SARS-CoV-2 S-QI9 epitope (in words) [1]	number of S-QI9-specific T cell populations that effectively recognized the peptide [1]	MFI, HLA-A2402 (APC), representative staining [2]	affinity for HLA-A*24:02, times weaker than that of S-QI9 [2]	% Mean Fluoresence [3, 4]	% Mean Fluoresence [3, 5]	% Mean Fluoresence [3, 6]	% Mean Fluoresence [3, 7]	% Mean Fluoresence [3, 8]	% Mean Fluoresence [3, 9]	% Mean Fluoresence [3, 10]	% Mean Fluoresence [3, 11]	% Mean Fluoresence [3, 12]	% Mean Fluoresence [3, 13]	% Mean Fluoresence [3, 14]	% Mean Fluoresence [3, 15]	stability of the HLA-A*24:02-peptide complex (in words) [3]	number of individuals whose S-QI9-specific T cells moderately recognized the peptide [1]	number of individuals whose S-QI9-specific T cells uniformly recognized variant peptide and S-QI9 [1]	number of individuals whose S-QI9-specific bulk T cells exhibited no or very weak recognition [1]	further results
MYVKWPWYV [HKU1]	higher sensitivity	13	49.8	10–30 times	100%	100%	100%	69.2%	72.5%	68.4%	38.6%	43%	37.4%	12.8%	14%	10%	weaker than that of the HLA-A*24:02-S-QI9 peptide complex				
NYIKWPWWV [NL63]	much lower sensitivity		16.2		100%	100%	100%	18.2%	44%	7.4%	-22.6%	35.4%	-0.6%	18.3%	-7.8%	2%	substantially weaker	7	2	4	affinity for HLA-A*24:02 (in words) [2]: substantially weaker
TYIKWPWWV [229E]	much lower sensitivity		41.6		100%	100%	100%	44.6%	48.7%	47.1%	19.2%	17%	16.5%	-1.1%	-0.2%	-1.9%	weaker than that of the HLA-A*24:02-HKU1 or HLA-A*24:02-OC43 peptide complexes	7	2	4	
YYVKWPWYV [OC43]	higher sensitivity	13	45.9	10–30 times	100%	100%	100%	70.4%	82.2%	77.7%	54.3%	54.5%	58.1%	20.6%	25.6%	22%	identical to that of the HLA-A*24:02-S-QI9 peptide complex				
